# Measurements published in patent US10731134B2, “Production method for artificial cancer stem cell and induced differentiation method therefor” (Public University Corporation Yokohama City University, priority 2011, dated 2020).
# “Also recorded” adds a separate entry of the source.
# What was measured:
# [1] = tested on: (CD44low/CD24high) cancer cells; conditions: mixed population of cancer stem cells and cancer cells; Gupta et al. 2009; cited from earlier work
# [2] = tested on: (CD44high/CD24low) cancer stem cells; conditions: mixed population of cancer stem cells and cancer cells; Gupta et al. 2009; cited from earlier work
# [3] = tested on: CSC-10A-D9 induced by differentiation from CSC-10A (induced cancer stem cells); assay: Induced differentiation of CSC-10A by addition of salinomycin (phase-contrast morphology, alkaline phosphatase staining, Western blot); assay type: cell-based, human
# Experimental: Also, these cells were stained with an undifferentiation marker alkaline phosphatase (ALP). […] Next, these cells were lysed and subjected to Western blot.
# Induced Differentiation Method for CSC-10A (Addition of Salinomycin)
# CSC-10A was seeded over 10-cm dishes. After 24 hours, salinomycin was added to give a final concentration of […] and the culture was continued at 37° C. Four days after the addition of salinomycin, the cells were stained with alkaline phosphatase. The cells were recovered four days after the addition of salinomycin and subjected to Western blot which confirmed the expression of vimentin, β-catenin, and tubulin (control).
# [4] = Western blot, 10 μM salinomycin, 4 days after addition
SMILES,Effect on (CD44low/CD24high) cancer cells [1],Effect on (CD44high/CD24low) cancer stem cells [2],"Staining with undifferentiation marker alkaline phosphatase (ALP-positive cells) ([3]; 10 μM salinomycin vs DMSO, 4 days after addition)","Size of each individual cell ([3]; 10 μM salinomycin vs DMSO, 4 days later)","Cell differentiation / morphology under a phase-contrast microscope ([3]; 10 μM salinomycin vs DMSO, observed 4 days later)","Expression of differentiation (epithelial) marker beta-catenin [3, 4]","Expression of stem cell (mesenchymal) marker vimentin [3, 4]"
CC(=O)O[C@H]1C(=O)[C@@]2(C)[C@H]([C@H](OC(=O)c3ccccc3)[C@]3(O)C[C@H](OC(=O)[C@H](O)[C@@H](NC(=O)c4ccccc4)c4ccccc4)C(C)=C1C3(C)C)[C@]1(OC(C)=O)CO[C@@H]1C[C@@H]2O [Taxol],only inhibits the growth of cancer cells,left intact,,,,,
CC[C@@H](C(=O)[C@@H](C)[C@@H](O)[C@H](C)[C@@H]1O[C@@H]([C@@H](CC)C(=O)O)CC[C@@H]1C)[C@H]1O[C@]2(C=C[C@@H](O)[C@]3(CC[C@@](C)([C@H]4CC[C@](O)(CC)[C@H](C)O4)O3)O2)[C@H](C)C[C@@H]1C [salinomycin],leaving cancer cells intact,kills only cancer stem cells,significant decrease in ALP-positive cells; also recorded: decreased,increased,differentiated into epithelial-like cells,increase,decrease
